According to the supplement of paper PMC7661543:
± gives the standard deviation of the averaged measurements.

Key:
Test in all cases: relative cell number vs DMSO control (72 h) (% of DMSO); higher = less growth inhibition (more cells)
Conditions in all cases: sgRNA knockout: sgNT
[1] = test system: HCC-38
Description: (§1)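 QMAP-Seq: a pool of 5 breast cancer cell lines (ZR-75-1, SKBR3, HCC-38, MDA-MB-231, BT-20), each carrying 12 doxycycline-inducible Cas9 sgRNA perturbations (11 knockouts plus non-targeting sgNT), was treated with compounds for 72 h at four 10-fold doses (10 nM-10 uM or 1 nM-1 uM range). Barcodes were amplified and sequenced, and cell number was interpolated from 293T spike-in standard curves. The result is expressed as % of the median of DMSO wells. Two biological replicates.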

[2] = test system: BT-20
Description: as §1

[3] = test system: MDA-MB-231
Description: as §1

[4] = test system: SKBR3
Description: as §1

[5] = test system: ZR-75-1
Description: as §1

SMILES | relative cell number ([1]; 10 nM) | relative cell number ([1]; 100 nM) | relative cell number ([1]; 1000 nM) | relative cell number ([1]; 10000 nM) | relative cell number ([2]; 10 nM) | relative cell number ([2]; 100 nM) | relative cell number ([2]; 1000 nM) | relative cell number ([2]; 10000 nM) | relative cell number ([3]; 10 nM) | relative cell number ([3]; 100 nM) | relative cell number ([3]; 1000 nM) | relative cell number ([3]; 10000 nM) | relative cell number ([4]; 10 nM) | relative cell number ([4]; 100 nM) | relative cell number ([4]; 1000 nM) | relative cell number ([4]; 10000 nM) | relative cell number ([5]; 10 nM) | relative cell number ([5]; 100 nM) | relative cell number ([5]; 1000 nM) | relative cell number ([5]; 10000 nM)
COc1cccc2cc(-c3nc([C@H]4CC[C@H](C(=O)O)CC4)n4ncnc(N)c34)[nH]c12 [OSI027] | 108 ± 20 | 107 ± 29 | 84.2 ± 1.9 | 31.2 ± 0.23 | 85.8 ± 7.3 | 113 ± 1.8 | 83.39 ± 0.24 | 52.5 ± 14 | 97.4 ± 8.9 | 128 ± 27 | 83.4 ± 29 | 58.9 ± 11 | 87.6 ± 25 | 116 ± 31 | 69.9 ± 14 | 27.8 ± 6.2 | 81.1 ± 21 | 94.9 ± 17 | 63.4 ± 24 | 25.4 ± 2
O=C(c1cc(Cc2n[nH]c(=O)c3ccccc23)ccc1F)N1CCN(C(=O)C2CC2)CC1 [Olaparib] | 93.4 ± 4.8 | 102 ± 2.2 | 88.6 ± 1.6 | 62.5 ± 0.89 | 103 ± 6 | 85.9 ± 12 | 73.2 ± 6.7 | 94 ± 7.7 | 87.3 ± 12 | 83.4 ± 1.6 | 93.9 ± 22 | 93.2 ± 31 | 87.7 ± 1.6 | 111 ± 9.3 | 85.4 ± 11 | 48.7 ± 9.5 | 78.3 ± 13 | 89.3 ± 28 | 64.1 ± 3.7 | 91.3 ± 17
Cc1ncc([N+](=O)[O-])n1CC(O)CCl (stereo not given) [Ornidazole] | 84.2 ± 8.7 | 88.1 ± 7.5 | 114 ± 19 | 97.7 ± 13 | 103 ± 7.7 | 81.8 ± 1.3 | 96.5 ± 6.5 | 104 ± 17 | 103.6 ± 0.42 | 108 ± 7.5 | 74.3 ± 12 | 138 ± 14 | 70.1 ± 3.7 | 102 ± 12 | 91.3 ± 26 | 104 ± 29 | 95 ± 18 | 76.4 ± 24 | 121 ± 71 | 84.3 ± 25
C=CCc1cccc(/C=N/NC(=O)CN2CCN(Cc3ccccc3)CC2)c1O [PAC1] | 104 ± 7.8 | 103 ± 7 | 90 ± 11 | 33.9 ± 2.5 | 92 ± 13 | 84.1 ± 14 | 74.6 ± 4.9 | 45.7 ± 18 | 104 ± 32 | 134.14 ± 0.028 | 109 ± 32 | 31.7 ± 4.5 | 68 ± 7 | 88.5 ± 14 | 68 ± 27 | 32.5 ± 11 | 99.5 ± 9.9 | 46.5 ± 24 | 89.6 ± 8.7 | 12.5 ± 5.5
Oc1cccc(-c2nc(N3CCOCC3)c3oc4ncccc4c3n2)c1 [PI103] | 118 ± 1.5 | 111 ± 1.1 | 85.3 ± 4.5 | 31.4 ± 2.4 | 120 ± 44 | 124 ± 37 | 68.7 ± 11 | 49.7 ± 11 | 143 ± 15 | 126 ± 41 | 118 ± 15 | 37.3 ± 11 | 145 ± 47 | 134 ± 2.6 | 62.6 ± 31 | 33.1 ± 2.4 | 121 ± 13 | 129 ± 16 | 58 ± 21 | 18.9 ± 2.2
CC(=O)Nc1nc(C)c(-c2ccc(Cl)c(S(=O)(=O)NCCO)c2)s1 [PIK93] | 115 ± 21 | 118 ± 22 | 80.4 ± 7.5 | 62.7 ± 7.3 | 106 ± 8.5 | 104 ± 2.3 | 98.71 ± 0.17 | 74 ± 3.9 | 84.5 ± 40 | 98.2 ± 31 | 88.6 ± 11 | 37.5 ± 1.5 | 112 ± 59 | 66.5 ± 30 | 94.4 ± 41 | 51.9 ± 25 | 128 ± 19 | 99.2 ± 33 | 61.1 ± 14 | 63.8 ± 24
